Measured values taken from patent US7435721B2, “Transport peptides such as C-terminal Erns peptide and analogues thereof” (Pepscan Systems B.V., priority 2000, dated 2008).
≈ marks a conversion by molar mass, not a printed value. Residues, ends and D or L forms follow the SMILES beside them. *: point of attachment. Biotin = O=C1N[C@H]2[C@H](CS[C@H]2CCCCC(=O)*)N1

These compounds were tested on guinea pig erythrocytes (assay: Hemolytic assay, guinea pig erythrocytes). Settings: 1% v/v, one hour at 37° C.
Format: cell-based
Description: Hemolytic assay. Hemolytic activity of various peptide concentrations was determined by incubation with human, guinea pig or sheep erythrocyte suspensions (final erythrocyte concentration, 1% v/v) for one hour at 37° C. After cooling and centrifugation, the optical density of the supernatants were measured at 540 nm. Peptide concentrations causing 50% hemolysis (EC50) were derived from the dose-response curves.

Compound | Hemolysis (peptide concentration causing 50% hemolysis) [mg/mL]
CC[C@H](C)[C@H](NC(=O)[C@H](CCCNC(=N)N)NC(=O)[C@H](CC(C)C)NC(=O)[C@H](CCC(N)=O)NC(=O)[C@H](CCCNC(=N)N)NC(=O)CNC(=O)[C@H](CC(C)C)NC(=O)[C@H](Cc1c[nH]c2ccccc12)NC(=O)[C@H](CO)NC(=O)[C@@H](NC(=O)[C@@H](NC(=O)[C@H](CCCNC(=N)N)NC(=O)[C@H](C)NC(=O)[C@H](C)NC(=O)CNC(=O)[C@H](CCC(N)=O)NC(=O)[C@H](CCCNC(=N)N)NC(=O)[C@H](C)NC(=O)[C@H](CC(N)=O)NC(=O)[C@H](CCC(=O)O)NC(=O)[C@@H](NC(=O)[C@@H](NC(=O)[C@H](CC(N)=O)NC(=O)[C@@H](NC(=O)[C@H](CCSC)NC(=O)CNC(=O)[C@H](CC(=O)O)NC(=O)[C@H](CC(C)C)NC(=O)[C@H](CC(C)C)NC(=O)[C@H](Cc1ccc(O)cc1)NC(=O)[C@H](CC(C)C)NC(=O)[C@H](C)NC(=O)[C@@H](NC(=O)[C@H](CC(=O)O)NC(=O)[C@H](CCC(N)=O)NC(=O)[C@H](CC(C)C)NC(=O)[C@H](CC(C)C)NC(=O)[C@H](CO)NC(=O)CNC(=O)CCCC[C@@H]1SC[C@@H]2NC(=O)N[C@@H]21)[C@@H](C)O)[C@@H](C)O)[C@@H](C)O)[C@@H](C)CC)C(C)C)[C@@H](C)O)C(=O)N[C@@H](C)C(N)=O [172-211] | >0.33
CC[C@H](C)[C@H](NC(=O)[C@H](CCCNC(=N)N)NC(=O)[C@H](CC(C)C)NC(=O)[C@H](CCC(N)=O)NC(=O)[C@H](CCCNC(=N)N)NC(=O)CNC(=O)[C@H](CC(C)C)NC(=O)[C@H](Cc1c[nH]c2ccccc12)NC(=O)[C@H](CO)NC(=O)[C@@H](NC(=O)[C@@H](NC(=O)[C@H](CCCNC(=N)N)NC(=O)[C@H](C)NC(=O)[C@H](C)NC(=O)CNC(=O)[C@H](CCC(N)=O)NC(=O)[C@H](CCCNC(=N)N)NC(=O)[C@H](C)NC(=O)[C@H](CC(N)=O)NC(=O)[C@H](CCC(=O)O)NC(=O)[C@@H](NC(=O)[C@@H](NC(=O)[C@H](CC(N)=O)NC(=O)[C@@H](NC(=O)[C@H](CCSC)NC(=O)CNC(=O)[C@H](CC(=O)O)NC(=O)[C@H](CC(C)C)NC(=O)[C@H](CC(C)C)NC(=O)[C@H](Cc1ccc(O)cc1)NC(=O)[C@H](CC(C)C)NC(=O)[C@H](C)NC(=O)[C@@H](NC(=O)[C@H](CC(=O)O)NC(=O)CCCC[C@@H]1SC[C@@H]2NC(=O)N[C@@H]21)[C@@H](C)O)[C@@H](C)O)[C@@H](C)O)[C@@H](C)CC)C(C)C)[C@@H](C)O)C(=O)N[C@@H](C)C(=O)NCC(=O)N[C@@H](CCCCN)C(=O)N[C@@H](CCCNC(=N)N)C(=O)N[C@@H](CC(C)C)C(=O)N[C@@H](CCC(=O)O)C(N)=O [177-216] | 0.23

Each compound was assayed on live cells in suspension or subconfluent monolayers (assay: not given). Settings: not given.
Format: cell-based

Compound | Translocation activity (in words) | Concentration (translocation activity of transport peptides) [µM]
CC[C@H](C)[C@H](NC(=O)[C@H](CC(C)C)NC(=O)[C@H](CCCCN)NC(=O)CNC(=O)[C@H](CC(N)=O)NC(=O)CNC(=O)CCCC[C@@H]1SC[C@@H]2NC(=O)N[C@@H]21)C(=O)N[C@@H](CCCCN)C(=O)NCC(=O)N[C@@H](CCCNC(=N)N)C(=O)N[C@H](C(=O)N1CCC[C@H]1C(=O)N[C@H](C(=O)N[C@@H](CCCCN)C(=O)N[C@@H](Cc1ccccc1)C(=O)NCC(=O)N[C@@H](CCCCN)C(=O)N[C@@H](C)C(=O)N[C@@H](CC(=O)O)C(=O)N[C@@H](CS)C(=O)N[C@@H](CC(=O)O)C(=O)N[C@@H](CCCNC(=N)N)C(=O)N1CCC[C@H]1C(=O)N1CCC[C@H]1C(=O)N[C@@H](CCCCN)C(=O)N[C@@H](Cc1c[nH]cn1)C(=O)N[C@@H](CO)C(=O)N[C@@H](CCC(N)=O)C(=O)N[C@@H](CC(N)=O)C(=O)NCC(=O)N[C@@H](CCSC)C(=O)NCC(=O)N[C@@H](CCCCN)C(N)=O)[C@@H](C)CC)[C@@H](C)O [L3 loop 59-88] (Biotin-GNGKLIKGRTPIKFGKADCDRPPKHSQNGMGK-NH2) | showed translocation activity | –
Biotin-DRRRRGSRPSGAERRRRRAAAA-NH2 [RSG-1.2] | – | 0.1
Biotin-DTRQARRNRRRRWRERQRAAAAR-NH2 [HIV-1 Rev] | – | 0.1

Same assay, conditions: Table 10

Compound | Concentration (translocation activity), mapping of restrictocin L3 loop [µM]
CC[C@H](C)[C@H](NC(=O)[C@H](CC(C)C)NC(=O)[C@H](CCCCN)NC(=O)CNC(=O)[C@H](CC(N)=O)NC(=O)CNC(=O)CCCC[C@@H]1SC[C@@H]2NC(=O)N[C@@H]21)C(=O)N[C@@H](CCCCN)C(=O)NCC(=O)N[C@@H](CCCNC(=N)N)C(=O)N[C@H](C(=O)N1CCC[C@H]1C(=O)N[C@H](C(=O)N[C@@H](CCCCN)C(=O)N[C@@H](Cc1ccccc1)C(=O)NCC(=O)N[C@@H](CCCCN)C(=O)N[C@@H](C)C(=O)N[C@@H](CC(=O)O)C(=O)N[C@@H](CS)C(=O)N[C@@H](CC(=O)O)C(=O)N[C@@H](CCCNC(=N)N)C(=O)N1CCC[C@H]1C(=O)N1CCC[C@H]1C(=O)N[C@@H](CCCCN)C(=O)N[C@@H](Cc1c[nH]cn1)C(=O)N[C@@H](CO)C(=O)N[C@@H](CCC(N)=O)C(=O)N[C@@H](CC(N)=O)C(=O)NCC(=O)N[C@@H](CCSC)C(=O)NCC(=O)N[C@@H](CCCCN)C(N)=O)[C@@H](C)CC)[C@@H](C)O [L3 loop 59-88] (Biotin-GNGKLIKGRTPIKFGKADCDRPPKHSQNGMGK-NH2) | 1.0

The compounds below were run on Escherichia coli ATCC 25922 (assay: Antimicrobial assay (MIC), E. coli). Settings: not given.
Format: cell-based
Description: Antimicrobial assay. Two bacterial strains (Escherichia coli ATCC 25922 and Enterococcus faecalis ATCC 29212) were inoculated on heart infusion agar with 5% sheep blood and incubated aerobically overnight at 37° C. From the pure cultures, suspensions were made in saline to a density of 0.5 McFarland. These suspensions were diluted ten-fold in Mueller Hinton II broth, resulting in a final inoculum of approximately 10^7 cfu/ml.
Standard 96-well microtiter trays were filled with 100 ill of two-fold dilutions of peptide in physiologic salt solution in each well, resulting in the following concentration range: 4000, 2000, 1000, 500, 250, 125, 62.25, 31.63, 15.82, 7.96 and 0 μg/ml. The trays in column 12 were filled with 200 μl MH II broth (negative control).
Columns 1-11 of the microtiter trays were filled with 100 μl of the final inoculum of the bacterial suspensions, thus diluting the concentrations of the peptide two fold, resulting in the following peptide concentration range in the wells: 2000, 1000, 500, 250, 125, 62.25, 31.63, 15.82, 7.96, 3.98 and 0 μg/ml. In rows B, C and D, 100 μl of the final inoculum of E. coli and, in rows E, F and G, 100 μl of the final inoculum of E. faecalis was pipetted. The final bacterial concentration was approximately 5×10^5 cfu/well. All trays were sealed and incubated overnight at 37° C. After incubation, the microtiter trays were inspected visually for bacterial growth and the absorbance of the cultures at 630 nm (A630) was determined with an ELISA-reader. […] The experiment was performed independently in triplicate. The test was repeated again in triplicate after two days with the final peptide concentration range in the wells: 5000, 2500, 1250, 625, 312.5, 156.25, 78.12, 39.06, 19.58, 9.79, 4.88, 2.44 and 1.22 μg/ml.

Compound | Antibacterial activity (in words)
CC[C@H](C)[C@H](NC(=O)[C@H](CC(C)C)NC(=O)[C@H](CCCCN)NC(=O)CNC(=O)[C@H](CC(N)=O)NC(=O)CNC(=O)CCCC[C@@H]1SC[C@@H]2NC(=O)N[C@@H]21)C(=O)N[C@@H](CCCCN)C(=O)NCC(=O)N[C@@H](CCCNC(=N)N)C(=O)N[C@H](C(=O)N1CCC[C@H]1C(=O)N[C@H](C(=O)N[C@@H](CCCCN)C(=O)N[C@@H](Cc1ccccc1)C(=O)NCC(=O)N[C@@H](CCCCN)C(=O)N[C@@H](C)C(=O)N[C@@H](CC(=O)O)C(=O)N[C@@H](CS)C(=O)N[C@@H](CC(=O)O)C(=O)N[C@@H](CCCNC(=N)N)C(=O)N1CCC[C@H]1C(=O)N1CCC[C@H]1C(=O)N[C@@H](CCCCN)C(=O)N[C@@H](Cc1c[nH]cn1)C(=O)N[C@@H](CO)C(=O)N[C@@H](CCC(N)=O)C(=O)N[C@@H](CC(N)=O)C(=O)NCC(=O)N[C@@H](CCSC)C(=O)NCC(=O)N[C@@H](CCCCN)C(N)=O)[C@@H](C)CC)[C@@H](C)O [L3 loop 59-88] (Biotin-GNGKLIKGRTPIKFGKADCDRPPKHSQNGMGK-NH2) | no antibacterial activity

Same assay, conditions: overnight at 37° C.

Compound | MIC (minimal inhibitory concentration needed to inhibit bacterial growth) [µg/mL]
CC[C@H](C)[C@H](NC(=O)[C@H](CCCNC(=N)N)NC(=O)[C@H](CC(C)C)NC(=O)[C@H](CCC(N)=O)NC(=O)[C@H](CCCNC(=N)N)NC(=O)CNC(=O)[C@H](CC(C)C)NC(=O)[C@H](Cc1c[nH]c2ccccc12)NC(=O)[C@H](CO)NC(=O)[C@@H](NC(=O)[C@@H](NC(=O)[C@H](CCCNC(=N)N)NC(=O)[C@H](C)NC(=O)[C@H](C)NC(=O)CNC(=O)[C@H](CCC(N)=O)NC(=O)[C@H](CCCNC(=N)N)NC(=O)[C@H](C)NC(=O)[C@H](CC(N)=O)NC(=O)[C@H](CCC(=O)O)NC(=O)[C@@H](NC(=O)[C@@H](NC(=O)[C@H](CC(N)=O)NC(=O)[C@@H](NC(=O)[C@H](CCSC)NC(=O)CNC(=O)[C@H](CC(=O)O)NC(=O)[C@H](CC(C)C)NC(=O)[C@H](CC(C)C)NC(=O)[C@H](Cc1ccc(O)cc1)NC(=O)[C@H](CC(C)C)NC(=O)[C@H](C)NC(=O)[C@@H](NC(=O)[C@H](CC(=O)O)NC(=O)[C@H](CCC(N)=O)NC(=O)[C@H](CC(C)C)NC(=O)[C@H](CC(C)C)NC(=O)[C@H](CO)NC(=O)CNC(=O)CCCC[C@@H]1SC[C@@H]2NC(=O)N[C@@H]21)[C@@H](C)O)[C@@H](C)O)[C@@H](C)O)[C@@H](C)CC)C(C)C)[C@@H](C)O)C(=O)N[C@@H](C)C(N)=O [172-211] | >500
CC[C@H](C)[C@H](NC(=O)[C@H](CCCNC(=N)N)NC(=O)[C@H](CC(C)C)NC(=O)[C@H](CCC(N)=O)NC(=O)[C@H](CCCNC(=N)N)NC(=O)CNC(=O)[C@H](CC(C)C)NC(=O)[C@H](Cc1c[nH]c2ccccc12)NC(=O)[C@H](CO)NC(=O)[C@@H](NC(=O)[C@@H](NC(=O)[C@H](CCCNC(=N)N)NC(=O)[C@H](C)NC(=O)[C@H](C)NC(=O)CNC(=O)[C@H](CCC(N)=O)NC(=O)[C@H](CCCNC(=N)N)NC(=O)[C@H](C)NC(=O)[C@H](CC(N)=O)NC(=O)[C@H](CCC(=O)O)NC(=O)[C@@H](NC(=O)[C@@H](NC(=O)[C@H](CC(N)=O)NC(=O)[C@@H](NC(=O)[C@H](CCSC)NC(=O)CNC(=O)[C@H](CC(=O)O)NC(=O)[C@H](CC(C)C)NC(=O)[C@H](CC(C)C)NC(=O)[C@H](Cc1ccc(O)cc1)NC(=O)[C@H](CC(C)C)NC(=O)[C@H](C)NC(=O)[C@@H](NC(=O)[C@H](CC(=O)O)NC(=O)CCCC[C@@H]1SC[C@@H]2NC(=O)N[C@@H]21)[C@@H](C)O)[C@@H](C)O)[C@@H](C)O)[C@@H](C)CC)C(C)C)[C@@H](C)O)C(=O)N[C@@H](C)C(=O)NCC(=O)N[C@@H](CCCCN)C(=O)N[C@@H](CCCNC(=N)N)C(=O)N[C@@H](CC(C)C)C(=O)N[C@@H](CCC(=O)O)C(N)=O [177-216] | 224 (≈ 47.8 µM)
CC[C@H](C)[C@H](NC(=O)[C@H](CC(C)C)NC(=O)[C@H](CCCCN)NC(=O)CNC(=O)[C@H](CC(N)=O)NC(=O)CNC(=O)CCCC[C@@H]1SC[C@@H]2NC(=O)N[C@@H]21)C(=O)N[C@@H](CCCCN)C(=O)NCC(=O)N[C@@H](CCCNC(=N)N)C(=O)N[C@H](C(=O)N1CCC[C@H]1C(=O)N[C@H](C(=O)N[C@@H](CCCCN)C(=O)N[C@@H](Cc1ccccc1)C(=O)NCC(=O)N[C@@H](CCCCN)C(=O)N[C@@H](C)C(=O)N[C@@H](CC(=O)O)C(=O)N[C@@H](CS)C(=O)N[C@@H](CC(=O)O)C(=O)N[C@@H](CCCNC(=N)N)C(=O)N1CCC[C@H]1C(=O)N1CCC[C@H]1C(=O)N[C@@H](CCCCN)C(=O)N[C@@H](Cc1c[nH]cn1)C(=O)N[C@@H](CO)C(=O)N[C@@H](CCC(N)=O)C(=O)N[C@@H](CC(N)=O)C(=O)NCC(=O)N[C@@H](CCSC)C(=O)NCC(=O)N[C@@H](CCCCN)C(N)=O)[C@@H](C)CC)[C@@H](C)O [L3 loop 59-88] (Biotin-GNGKLIKGRTPIKFGKADCDRPPKHSQNGMGK-NH2) | >500
